The record followed here is patent US9757379B2, “Inhibition of HIF-2α heterodimerization with HIF1β (ARNT)” (The Board of Regents of the University of Texas System, priority 2012, dated 2017).

One experiment addresses HIF-2α PAS-B (Homo sapiens, UniProt Q99814). Nature of the experiment: Isothermal titration calorimetry (ITC) on HIF-2α PAS-B. (Isothermal titration calorimetry measures the heat released or taken up as one component is titrated into another.)
In experiment [1] the target is HIF-2α PAS-B*/ARNT PAS-B* heterodimer (Homo sapiens, UniProt Q99814, R247E). Nature of the experiment: AlphaScreen, HIF-2α PAS-B*/ARNT PAS-B* heterodimerization.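 Further: GST-tagged HIF-2α PAS-B* and FLAG-tagged ARNT PAS-B* with glutathione donor and anti-FLAG acceptor beads, luminescence after 680 nm excitation, loss of signal indicating disrupted heterodimer.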 For orientation: In Alpha technology, singlet oxygen from a donor bead excites a nearby acceptor bead.
Chain of HIF-2α PAS-B*/ARNT PAS-B* heterodimer (Q99814 240-350 R247E, one chain of several): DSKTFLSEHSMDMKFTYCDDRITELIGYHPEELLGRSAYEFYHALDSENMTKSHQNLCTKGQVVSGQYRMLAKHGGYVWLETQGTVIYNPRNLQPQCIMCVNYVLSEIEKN
Description: (FIG. 8a) As shown in the cartoon schematic, interactions between GST-tagged HIF-2α (green) and FLAG-tagged ARNT (blue) PAS-B* domains recruit both donor beads (D), coated with glutathione, and acceptor beads (A), coated with anti-FLAG antibodies, to one another. Upon illumination with red (680 nm) light, donor beads will generate short-lived singlet oxygen (^1O2). Nearby (<200 nm) acceptor beads can react with ^1O2 to emit light at shorter wavelengths (top). Compounds that disrupt the complex correspondingly eliminate this signal (bottom). Compounds that non-specifically interfere with the AlphaScreen assay can be identified with a counterscreen in which the ARNT PAS-B* domain was simultaneously tagged with both the GST and FLAG tags. (FIG. 8b) The AlphaScreen signal (relative units; RU) reflecting protein-protein interactions between 25 (open triangles), 50 (open circles) or 100 (closed circles) nM HIF-2α PAS-B* increases with increasing concentrations of ARNT PAS-B*. At the highest ARNT PAS-B* concentrations, a decrease in signal reflects the hook effect. At these concentrations, protein binding to the acceptor beads has become saturated and free ARNT PAS-B* competes with the coated acceptor beads for the donor beads bound to HIF-2α PAS-B*. […] Assays were performed in triplicate and the error bars represent±SD.
Inhibition of heterodimerization of HIF-2α to HIF1β (ARNT) may be determined in an Amplified Luminescent Proximity Homogeneous Assay (AlphaScreen).
The AlphaScreen assay can be done according to the following procedures: • 1. Prepare cold binding buffer solution: 20 mM Tris-Cl (pH=7.5), 100 mM NaCl, 1 mM DTT, 0.02% Tween-20 (final concentration) and place on ice to keep temperature approximately 4° C. • 2. Prepare Protein Mix: To a 50 mL conical tube add 23 mL of cold buffer and 0.04 mL of both GST-HIF2α PASB* (100 μM) and ARNT-PASB*-Flag (100 μM). • 3. Distribute to 96 well plate: Add 60 μL of protein mix to each wells. • 4. Adding Compound: Dissolve compounds in DMSO to obtain a final concentration of 10 mM. Then create the appropriate dilutions for your particular compound in glass vials. Once all the dilutions are ready place 1 μL of compound in each well. • 5. Prepare Bead mix: In the dark room using green light only create a tube with 3.84 mL of cold buffer and 3 μL of GST Donor beads and Flag acceptor beads. • 6. Distribute Bead mix: Invert the tube a couple times before distributing 40 μL of mix to each well. • 7. Incubation: After adding beads wrap the plate in tin foil twice and remove the covered plate from dark room. Incubate the plate at room temperature while rocking gently for 4 hours. • 8. Read: After 4 hours place the uncovered plate in the plate reader. Make sure the room is relatively tree of white light when placing the plate in the machine. It is ok to have the green light on if needed. • 9. […] Flag acceptor beads should be aliquoted into small opaque tubes (20-50 μl per tube) upon arrival from the manufacturer. Place both sets of beads in 4° C. storage when not in use. • 11. Avoid expose beads to white light. • 12. Pipette beads up and down several times before adding to a tube of cold buffer solution. • 13. Amount of Beads used for Bead mix may vary from batch to batch.

Structures are written as SMILES. Read-outs that look alike come from different tables or passages of the source. Bounds are passed on as bounds.
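Wherever Kd is given: Wild-type protein (200 µM) titrated into 5-10 µM compound, heats of dilution from a compound-free titration subtracted, isotherms fit to a single-site model.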

Chain of HIF-2α PAS-B (Q99814 240-350): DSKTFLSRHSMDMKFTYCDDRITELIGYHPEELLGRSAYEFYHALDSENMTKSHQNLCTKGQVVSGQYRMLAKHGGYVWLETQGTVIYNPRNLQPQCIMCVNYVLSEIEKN

With `O=[N+]([O-])c1ccccc1Nc1cc(F)cc(Cl)c1` (racemic) [Compound 33], the Kd (usually the constant that tells how readily two partners part at equilibrium) on HIF-2α PAS-B was determined as 4300 nM. Regarding `Fc1ccccc1[C@@H]1C[C@H](c2cccc(Br)c2)Nc2nnnn21` (racemic) [Compound 50, (+/−)-(cis)-5-(3-bromophenyl)-7-(2-fluorophenyl)-4,5,6,7-tetrahydrotetrazolo[1,5-a]pyrimidine], on HIF-2α PAS-B, binding was characterised by a dissociation constant (Kd) of 760 nM. In addition, half-maximal inhibition in experiment [1] (IC50) required 700 nM.

In the case of `Clc1ccccc1[C@@H]1C[C@H](c2cccc(Br)c2)Nc2nnnn21` (racemic) [Compound 51, (+/−)-(cis)-5-(3-bromophenyl)-7-(2-chlorophenyl)-4,5,6,7-tetrahydrotetrazolo[1,5-a]pyrimidine], the Kd at HIF-2α PAS-B was 435 nM. Besides, the midpoint of inhibition in experiment [1], the IC50, lay at 300 nM. As for `Brc1cccc([C@H]2C[C@@H](c3ccccc3Br)n3nnnc3N2)c1` (racemic) [Compound 54, (+/−)-(cis)-7-(2-bromophenyl)-5-(3-bromophenyl)-4,5,6,7-tetrahydrotetrazolo[1,5-a]pyrimidine], binding at HIF-2α PAS-B was put at a Kd of 565 nM. Besides, in experiment [1], the IC50 (as a rule, the concentration needed to halve the response being measured) is 200 nM. `Brc1cccc([C@H]2C[C@@H](c3ccccc3I)n3nnnc3N2)c1` (racemic) [Compound 55, (+/−)-(cis)-5-(3-bromophenyl)-7-(2-iodophenyl)-4,5,6,7-tetrahydrotetrazolo[1,5-a]pyrimidine] returned a Kd on HIF-2α PAS-B of 862 nM. This molecule also had an IC50 in experiment [1] of 600 nM. `Clc1cccc([C@@H]2C[C@H](c3cccc(Br)c3)Nc3nnnn32)c1` (racemic) [Compound 56, (+/−)-(cis)-5-(3-bromophenyl)-7-(3-chlorophenyl)-4,5,6,7-tetrahydrotetrazolo[1,5-a]pyrimidine]: the affinity on HIF-2α PAS-B, expressed as Kd, was 106 nM. For the same molecule, the IC50 in experiment [1] was 200 nM. `Fc1c(Cl)cccc1[C@@H]1C[C@H](c2cccc(Br)c2)Nc2nnnn21` (racemic) [Compound 59, (+/−)-(cis)-5-(3-bromophenyl)-7-(3-chloro-2-fluorophenyl)-4,5,6,7-tetrahydrotetrazolo[1,5-a]pyrimidine] displayed a Kd at HIF-2α PAS-B of 42 nM. The molecule further yielded an IC50 in experiment [1] of 200 nM. As for `CC(C)C[C@@H]1C[C@H](c2cccc(Br)c2)Nc2nnnn21` (racemic) [Compound 64, (+/−)-(cis)-5-(3-bromophenyl)-7-isobutyl-4,5,6,7-tetrahydrotetrazolo[1,5-a]pyrimidine], the Kd at HIF-2α PAS-B is 930 nM. For the molecule `O=[N+]([O-])c1c(NCc2ccccc2)ccc2nonc12` [Compound 17], the IC50 in experiment [1] was above 5000 nM. Regarding `Cc1ccc(CNc2ccc3nonc3c2[N+](=O)[O-])cc1` [Compound 18], the IC50 in experiment [1] was above 10000 nM.

As to `O=[N+]([O-])c1c(NCc2ccc(Cl)cc2)ccc2nonc12` [Compound 19], in experiment [1], the IC50 was above 5000 nM. Take `O=[N+]([O-])c1c(NCc2cc(F)cc(Cl)c2)ccc2nonc12` [Compound 21]: the Kd at HIF-2α PAS-B (read-out: ITC Kd) amounted to 2000 nM. In experiment [1], `O=[N+]([O-])c1c(NCc2cc(F)ccc2C(F)(F)F)ccc2nonc12` [Compound 22] displayed an IC50 above 30000 nM. Still for that read-out and setting: then `COc1cccc(Nc2ccc3nonc3c2[N+](=O)[O-])c1` [Compound 23], with above 10000 nM. In the case of `O=[N+]([O-])c1cccc(Nc2ccc3nonc3c2[N+](=O)[O-])c1` [Compound 27], binding on HIF-2α PAS-B was put at a Kd of 4300 nM. In the case of `O=[N+]([O-])c1c(Nc2cccc(F)c2)ccc2nonc12` [Compound 28], the Kd at HIF-2α PAS-B is 2100 nM. Regarding `O=[N+]([O-])c1c(Nc2cc(F)cc(Cl)c2)ccc2nn[nH]c12` [Compound 34], the IC50 in experiment [1] is above 10000 nM.

In experiment [1], `O=[N+]([O-])c1c(Nc2cc(F)cc(Cl)c2)ccc2[nH]cnc12` [Compound 35] had an IC50 above 5000 nM. With `Fc1cc(Cl)cc(Nc2ccc3nonc3c2)c1` [Compound 38], the Kd on HIF-2α PAS-B was around 3000 nM. As to `CNS(=O)(=O)c1c(Nc2cc(F)cc(Cl)c2)ccc2nonc12` [Compound 43], at HIF-2α PAS-B (read-out: ITC Kd), the Kd was 5000 nM.

Take `CN(C)S(=O)(=O)c1c(Nc2cc(F)cc(Cl)c2)ccc2nonc12` [Compound 44]: on HIF-2α PAS-B (read-out: ITC Kd), the Kd came out at 5000 nM.
